Laboratory results as given in patent US9011945B2, “Composition and method for neuroprotection against excitotoxic injury” (priority 2008, dated 2015).
Counter-ions that a name gives are not always drawn.

Key:
[1] = test system: intrasynaptosomal Ca2+ concentration; assay: Intrasynaptosomal Ca2+ concentration, Fluo-3/AM (Example 1); assay type: in vivo, mice; conditions: striatum, 4 hr after excitotoxic injury; control group 145.62%±7.16%; n=10
Experimental: Intrasynaptosomal Ca^2+ concentration [Ca^2+]i was determined with the calcium-sensitive fluorochrome fluo-3-acetoxymethyl (Fluo-3/AM) in the presence of acetoxymethyl ester. First, 100 L of P2 synaptosomes was prepared as described above, and 2.5 mM Fluo-3/AM (Sigma, St. Louis, Mo.) was added to each well (final reaction volume of 250 L) and incubated at 37° C. for 30 min. Fluorescence was measured in a Microplate Fluorometer (Labsystems, Helsinki, Finland) with an excitation wavelength of 490 nm and an emission wavelength of 526 nm.

[2] = test system: NMDA-decreased locomotor activities; assay: Open field locomotor activity test with icv NMDA (Example 2)
Experimental: In this example, the combination of TP with M (memantine) in three different dosage ratios of 6:1, 3:1, and 10:1 respectively; these are TPM6 (TP 30 mg/kg/day:M 5 mg/kg/day), TPM3 (TP 15 mg/kg/day:M 5 mg/kg/day) and TPM10 (TP 30 mg/kg/day:M 3 mg/kg/day), respectively.
A large colorless rectangular box with a metallic grid floor was used (70-cm wide, 90-cm long and 60-cm high). The photobeam activity monitors (TruScan coulbourn instruments) was used for measuring real-time X-Y activity track-type plots. Overall pulses were measured in an electromechanical counter as a gross measure of activity and recorded by a PC. Each mouse was allowed to move freely for 5 min but data were not scored, and then the number of squares crossed and the plots of tracking were counted during a period of 30 min for all experiments and quantification of data was by TruScan99 software.

[3] = test system: mitochondrial membrane potential (ΔΨm); assay: Mitochondrial membrane potential, DiOC6(3) (Example 1); assay type: in vivo, mice; conditions: striatum, 24 hr after excitotoxic injury; control group 85.06%±2.58%
Experimental: (§1) Twenty-four hours after excitotoxic injury, mice were sacrificed by rapid decapitation under anesthesia. The lesioned (left) hemisphere was dissected into striatal and nonstriatal areas. The contralateral hemisphere was then dissected into the corresponding parts. Synaptosomes were prepared essentially as described previously (Andersen J M, Myhre O, Fonnum F. 2003. Discussion of the role of the extracellular signal-regulated kinase-phospholipase A2 pathway in production of reactive oxygen species in Alzheimer's disease. Neurochem Res 28: 319-326.). Briefly, different regions of the brain were removed and placed on ice. […]
Mitochondrial membrane potential (ΔΨm) was measured using the fluorescent dye 3,3-diexyloxacarbocyanine iodide, DiOC6(3) (Chen Y C, Lin-Shiau S Y, Lin J K, 1998b. Involvement of reactive oxygen species and caspase 3 activation in arsenite-induced apoptosis. J Cell Physiol 177: 324-333.). Synaptosomes were prepared as described above and diluted 1:40 in Tris buffer, followed by the addition of DiOC6(3) to a final concentration of 1.5 M. After 20 min of incubation at 37° C., fluorescence was measured in a Microplate Fluorometer (Labsystems, Helsinki, Finland) with an excitation wavelength of 484 nm and an emission wavelength of 501 nm.

[4] = test system: NMDA-induced neurotoxicities; assay: Rotarod motor equilibrium performance with icv NMDA (Example 2)
Experimental: Their neuroprotective effects were evaluated after pretreatment for fourteen days or one day prior to the intracerebroventricular injection (icy) of 8 mM NMDA (3 μl).
One day before the experiment, mice were tested through ten consecutive sessions to stay on the rod and reach the cut off time of 180 s. One day after injection, mice were tested again. The retention time, defined as total time (sec) remaining on the rod, was recorded at each session.

[5] = test system: NMDA-induced seizures (icv NMDA); assay: NMDA-induced seizure score (Example 2); assay type: in vivo, mice; conditions: pretreatment before icv 8 mM NMDA (3 μl); control vehicle 90±10%
Excerpt: In NMDA-treated mice, seizures developed through a sequence of paroxysmal scratching, hypermotility and aircling, tonic-clonic convulsions and, occasionally, death. The following semi-quantitative scale was used for the examination of excitotoxic severity: 0, no response; 1, excessive grooming plus paroxysmal scratching; 2, mild hypermotility; 3, extensive hypermotility and circling; 4, forepaw clonus plus tail hypertonus; 5, generalized tonic-clonic convulsions; 6, “status epilepticus” and death (Marganella et al. 2005. Comparative effects of levobupivacaine and racemic bupivacaine on excitotoxic neuronal death in culture and N-methyl-D-aspartate-induced seizures in mice. Eur. J. Pharmacol. 518: 111-115). The latency (in sec) for generalized (clonic or tonic-clonic convulsions) seizures was also determined.

Na+, K+-ATPase = Na+, K+-ATPase activity of synaptosomes after excitotoxic injury (Example 1); assay type: in vivo, mice; conditions: striatum synaptosomes 24 hr after excitotoxic injury
Experimental: as §1
(§2) ATPase activity was determined by measuring the amount of inorganic phosphate (Pi) released from the substrate ATP according to a previously described colorimetric method. The method permitted the quantification of Na^+, K^+-ATPase and Mg^2+-ATPase activity in the same sample. […] Optical density at 630 nm was determined by an ELISA reader (Dynatech MR-7000). The absorbance values obtained were converted to activity values by linear regression using a standard curve for sodium monobasic phosphate included in the assay at various concentrations. […] Protein concentration was determined colorimetrically with a commercial bicinchoninic acid kit (Pierce, Rockford, Ill.).

[6] = test system: mitochondrial succinate reductase; assay: Mitochondrial reductase activity, MTT test (Example 1); assay type: in vivo, mice; conditions: striatum, 24 hr after excitotoxic injury; control group 74.52%±4.86%
Experimental: (§3) Twenty-four hours after excitotoxic injury, mice were sacrificed by rapid decapitation under anesthesia. The lesioned (left) hemisphere was dissected into striatal and nonstriatal areas. The contralateral hemisphere was then dissected into the corresponding parts. Synaptosomes were prepared essentially as described previously (Andersen J M, Myhre O, Fonnum F. 2003. Discussion of the role of the extracellular signal-regulated kinase-phospholipase A2 pathway in production of reactive oxygen species in Alzheimer's disease. Neurochem Res 28: 319-326.). Briefly, different regions of the brain were removed and placed on ice. Specimens with the same areas and treatment conditions were pooled (n=2) and subjected to homogenization on ice in 10 volumes of 0.32M sucrose. Homogenates were centrifuged at 4° C. for 10 min at 600 g. The supernatant was then diluted 1:1 with 1.3M sucrose to obtain a suspension with a final sucrose concentration of 0.8M. This suspension was subjected to centrifugation at 20,000 g for 30 min at 4° C., yielding a myelin-rich supernatant and a pellet (P2) consisting of synaptosomes free of myelin. […]
Mitochondrial metabolic function was assessed by the conversion of the dye methylthiazoletetrazolium (MTT) to purple formazan. […] The formation of formazan was quantitated spectrophotometrically at 570 nm using a Microplate Reader.

Mg2+-ATPase = Mg2+-ATPase activity of synaptosomes after excitotoxic injury (Example 1); assay type: in vivo, mice; conditions: striatum synaptosomes 24 hr after excitotoxic injury
Experimental: as §1, §2

[7] = test system: excitotoxic injury (NMDA injected into the left striatum); assay: Locomotor activity test before and after intrastriatal NMDA excitotoxic injury (Example 1); assay type: in vivo; conditions: mice, oral gavage 2 days before intrastriatal NMDA; tested 24 hr after injury; n=8
Excerpt: Memantine hydrochloride (>98.5% white crystalline powder) was supplied by Lotus Pharmaceutical Co., Ltd. (Taipei, Taiwan). Tea polyphenols were isolated from Longjing green tea with the following composition: epigallocatechin, 14.69%; catechin, 1.13%; epigallocatechin-3-gallate, 41.34%; epicatechin, 5.47%; gallocatechin-3-gallate, 5.16%; epicatechin-3 gallate, 12.54%; coffein, 0.95%; and other catechin derivatives, 18% (Yeh C W, Chen W J, Chiang C T, Lin-Shiau S Y, Lin J K. 2003. Suppression of fatty acid synthase in MCF-7 breast cancer cells by tea and tea polyphenols: a possible mechanism for their hypolipidemic effects. Pharmacogenomics J 3: 267-276.). Memantine (10 mg/kg/day), tea polyphenol (60 mg/kg/day), or a combination (memantine 5 mg/kg/day plus tea polyphenol 30 mg/kg/day) was dissolved in distilled water and administered by oral gavage for 2 consecutive days before causing excitotoxic injury. The experimental design had 5 groups: the sham operation group, the control group, the memantine group, the tea polyphenol group, and the tea polyphenol plus memantine group.
Weight and rectal temperature of each mouse were recorded before the surgical procedure. Anesthesia was induced with 5% chloral hydrate (400 mg/kg). […] Throughout the experimental procedure, mouse rectal temperature was monitored and maintained at 37.0° C.±0.5° C. […]

NO levels = NO levels of brain synaptosomes (Example 2); assay type: in vivo, mice; conditions: FIG. 11E
[8] = test system: NMDA-induced neurotoxicities; assay: Elevated plus maze with icv NMDA (Example 2)
Experimental: In this example, the combination of TP with M (memantine) in three different dosage ratios of 6:1, 3:1, and 10:1 respectively; these are TPM6 (TP 30 mg/kg/day:M 5 mg/kg/day), TPM3 (TP 15 mg/kg/day:M 5 mg/kg/day) and TPM10 (TP 30 mg/kg/day:M 3 mg/kg/day), respectively. Their neuroprotective effects were evaluated after pretreatment for fourteen days or one day prior to the intracerebroventricular injection (icy) of 8 mM NMDA (3 μl).
For testing, mice were individually placed in the center of the maze facing a closed arm and allowed 5 min of free exploration. The number of entries into open arms, the number of entries into closed arms, and the total time spent in the open arms and total time spent in the closed arms were measured. Entry was defined as all four paws in the arms.

[9] = test system: synaptosomal reactive oxygen species; assay: Synaptosomal reactive oxygen species formation, DCFH-DA (Example 1); assay type: in vivo, mice; conditions: mouse excitotoxic injury
Experimental: as §3, with “g.” for “g. The supernatant was then diluted 1:1 with 1.3M sucrose to obtain a suspension with a final sucrose concentration of 0.8M. This suspension was subjected to centrifugation at 20,000 g for 30 min at 4° C., yielding a myelin-rich supernatant and a pellet (P2) consisting of synaptosomes free of myelin.”
Dichlorofluorescein-diacetate (DCFH-DA), a nonfluorescent cell-permeable compound, diffuses passively across cell membranes. […] Plates were incubated with shaking at 37° C. for 30 min before measurement of fluorescence using a Microplate Fluorometer (Labsystems, Helsinki, Finland) with an excitation wavelength of 488 nm, an emission wavelength of 525 nm, and a band width of 5 nm. […] Synaptosomal protein concentration was determined with Pierce BCA reagents according to instructions provided. […]

With CC12CC3CC(C)(C1)CC(N)(C3)C2 [memantine, Memantine hydrochloride] the “intrasynaptosomal Ca2+ concentration [Ca2+]i” value [1] was 123.04%±6.70%, the “locomotor activities in the open field, drug alone” value ([2]; consecutive 14 days, before NMDA, FIG. 7) was “increased locomotor activities” and the “reversal of decreased locomotor activities induced by NMDA” value ([2]; drug one day before and consecutive 14 days following NMDA, FIG. 10A) was “partially reversed”. For the same compound, the “reversal of decrease in jump activity induced by NMDA” value ([2]; drug one day before and consecutive 14 days following NMDA, FIG. 10B) was “partially reversed”, the “order of neuroprotective potencies against NMDA-decreased locomotor activities” value ([2]; pretreatment 14 days, FIG. 8A) was “TPM10>TPM6>TPM3>M” and the “order of neuroprotective potencies against the decreased jump exploratory effect of NMDA” value ([2]; pretreatment 14 days, FIG. 8B) was “M>TPM6>TPM3>TPM10”. For the same compound, the “NMDA-decreased locomotor activities, prevention by pretreatment” value ([2]; pretreatment 14 days, icv 3 μl of 8 mM NMDA) was “prevented”, the “decrease in jump activity, drug alone” value ([2]; pretreatment alone for consecutive 14 days, FIG. 8B) was “TPM6>M>TPM10” and the “mitochondrial membrane potential (ΔΨm)” value [3] was 94.23%±4.19%. The “reversal of disturbance in rotarod motor equilibrium function induced by NMDA” value ([4]; drug one day before and consecutive 14 days following NMDA, FIG. 10D) was “reversed”, the “motor equilibrium function, drug alone” value ([4]; prolonged use alone, FIG. 8D) was “reduced the motor equilibrium function” and the “attenuations of NMDA-induced seizure scores in percentage” value [5] was 60±10%. For the same compound, the “attenuation of decreased Na+, K+-ATPase activity” value (Na+, K+-ATPase) was “only minimally attenuated”, the “mitochondrial reductase activity (MTT test)” value [6] was 93.53%±8.53% and the “attenuation of decreased Mg2+-ATPase activity” value (Mg2+-ATPase) was “only minimally attenuated”. The “improvement of impaired locomotor activity after excitotoxic injury” value [7] was “substantial but nonsignificant improvement”, the “NO levels of brain synaptosomes increased by NMDA” value (NO levels) was “decreased” and the “attenuation of increased retention time in the opened plus maze by NMDA” value ([8]; drug one day before and consecutive 14 days following NMDA, FIG. 10C) was “followed in order by TPM6, TPM10 and then M”. The “retention time in the open field of elevated plus maze, drug alone” value ([8]; prolonged use alone, FIG. 8C) was “prominently increased retention time” and the “effect on increased synaptosomal ROS production” value [9] was “does not have any significant effects”.
